Laboratory results as given in PubChem BioAssay AID2060513 (Molecular Pharmacology Branch, DTP, NCI, 2025).
Values joined by “and” are separate entries in the source; they are usually repeats but may differ in a detail not shown here. Equal values may be shown once.

Tested on: 299254-011-R-J1-PDC complex spheroids viability
Experiment: Anticancer human tumor 299254-011-R-J1-PDC patient-derived melanoma cell line growth inhibition [GQUAD]
Conditions: for viability, T/C: stronger effect = lower value; active = viability on the fitted dose curve at most 10% of control; inactive = the rest
Description: DNA G-quadruplex Stabilizer Agents in Combinations in Complex Spheroids
A high-throughput screen of multi-cell type tumor spheroids was designed to identify active combinations of DNA G-quadruplex stabilizer agents and targeted small molecules. Complex spheroids include a stromal component modeled by human endothelial cells (HUVEC) and fibroblasts modeled by human mesenchymal stem cells (MSCs). The concentration ranges selected for each drug and investigational agent were based upon clinically achievable concentrations if the clinical Cmax of the agent was known.
Compounds. The drugs and investigational agents: pidnarulex (CX-5461; NSC782164), APTO-253 (NSC789042), BRACO-19 (NSC847499), peposertib (NSC802822), ceralasertib (NSC780249), elimusertib (NSC800525), camonsertib (NSC841442), AZD-1390 (NSC803789), olaparib (NSC753686), talazoparib (NSC767125), ART-558 (NSC835418), sotorasib (NSC818433), MRTX-1133 (NSC836407), SN-38 (NSC673596), topotecan (NSC609699), etoposide (NSC141540), doxorubicin (NSC123127), gemcitabine (NSC613327), 5-fluorouracil (NSC19893), paclitaxel (NSC125973), vemurafenib (NSC761431), panobinostat (NSC761190), R-306465 (JNJ-16241199; NSC773264), adavosertib (NSC754352), TP-3654 (NSC805149), carboplatin (NSC241240), KSQ-4279 (NSC840948), and staurosporine (NSC755774) were obtained from the National Cancer Institute (NCI) Developmental Therapeutics Program Chemical Repository (34). The FDA-approved anticancer drug set is available from the NCI Developmental Therapeutics Program. […] The stock solutions were prepared in dimethyl sulfoxide (DMSO, Sigma-Aldrich, St. Louis, MO, cat. D2650) at 800-fold the tested concentration and stored at -70 degrees C prior to their use. All drugs and investigational agents were tested over a range starting from a high concentration at or near the clinical Cmax and decreasing in half-log increments. If the clinical Cmax for an agent had not been determined, the highest concentration tested was 10 microM.
2.3 Cell Culture. All cells were maintained in an incubator at 37 degrees C and 5% CO2 with 95% humidity. The PDC lines were cultured according to standard operating procedures established by the NCI PDMR. All PDCs were thawed and cultured in Matrigel-coated flasks prepared with a working solution of 1X Ham's F-12 nutrient mix, without supplementation (Invitrogen, cat. 11765054), 100 U/mL penicillin-streptomycin (Invitrogen, cat. 15140122), and 2.5% Matrigel (Corning Inc., cat. 354248) for the first three passages. The 857933-349-R-J2-PDC line was cultured in 6C/Colon 1B media, which includes advanced DMEM/F-12 (Thermo Fisher Scientific, cat. 12634028), 10 mM HEPES (Thermo Fisher Scientific, cat. 15630080), 1X GlutaMAX supplement (Thermo Fisher Scientific, cat. 35050061), 0.1 mg/mL primocin (InvivoGen, cat. ant-pm-2), 10% defined fetal bovine serum, heat inactivated (HyClone Laboratories Inc., cat. SH30070.03HI), 50% L-WRN conditioned media (ATCC, cat. CRL-3276), 1.25 mM N-Acetyl-L-cysteine (Sigma-Aldrich, cat. A9165), 10 mM nicotinamide (Sigma-Aldrich, cat. N0636), 1X B-27 supplement (Thermo Fisher Scientific, cat. 17504044), 1X N-2 supplement (Thermo Fisher Scientific, cat. 17502048), 10 microM Y-27632 dihydrochloride (Tocris Bioscience, cat. 1254), and 50 ng/mL human EGF recombinant protein (Thermo Fisher Scientific, cat. PHG0311). The 485176-168-R4-J1-PDC line was cultured in Panc media, which includes all 6C/Colon 1B media components plus 100 ng/mL human FGF-10 (Thermo Fisher Scientific, cat. 100-26), 500 nM SB-431542 (Selleckchem, cat. S1067), and gastrin (Tocris, cat. 3006).
[…]

[1] = curve of first compound, second compound 0.0316 µM
[2] = curve of first compound, second compound 0.1 µM
[3] = curve of first compound, second compound 0.316 µM
[4] = curve of first compound, second compound 1 µM
[5] = curve of first compound, second compound 3.16 µM
[6] = curve of first compound, second compound 10 µM
[7] = second compound 0.0316 µM, first compound 0.0316 µM
[8] = second compound 0.0316 µM, first compound 0.1 µM
[9] = second compound 0.0316 µM, first compound 0.316 µM
[10] = second compound 0.0316 µM, first compound 1 µM
[11] = second compound 0.0316 µM, first compound 3.16 µM
[12] = second compound 0.0316 µM, first compound 10 µM
[13] = second compound 0.1 µM, first compound 0.0316 µM
[14] = second compound 0.1 µM, first compound 0.1 µM
[15] = second compound 0.1 µM, first compound 0.316 µM
[16] = second compound 0.1 µM, first compound 1 µM
[17] = second compound 0.1 µM, first compound 3.16 µM
[18] = second compound 0.1 µM, first compound 10 µM
[19] = second compound 0.316 µM, first compound 0.0316 µM
[20] = second compound 0.316 µM, first compound 0.1 µM
[21] = second compound 0.316 µM, first compound 0.316 µM
[22] = second compound 0.316 µM, first compound 1 µM
[23] = second compound 0.316 µM, first compound 3.16 µM
[24] = second compound 0.316 µM, first compound 10 µM
[25] = second compound 1 µM, first compound 0.0316 µM
[26] = second compound 1 µM, first compound 0.1 µM
[27] = second compound 1 µM, first compound 0.316 µM
[28] = second compound 1 µM, first compound 1 µM
[29] = second compound 1 µM, first compound 3.16 µM
[30] = second compound 1 µM, first compound 10 µM
[31] = second compound 3.16 µM, first compound 0.0316 µM
[32] = second compound 3.16 µM, first compound 0.1 µM
[33] = second compound 3.16 µM, first compound 0.316 µM
[34] = second compound 3.16 µM, first compound 1 µM
[35] = second compound 3.16 µM, first compound 3.16 µM
[36] = second compound 3.16 µM, first compound 10 µM
[37] = second compound 10 µM, first compound 0.0316 µM
[38] = second compound 10 µM, first compound 0.1 µM
[39] = second compound 10 µM, first compound 0.316 µM
[40] = second compound 10 µM, first compound 1 µM
[41] = second compound 10 µM, first compound 3.16 µM
[42] = second compound 10 µM, first compound 10 µM
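Also: spheroids exposed to the agents for seven days before readout.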
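For viability, T/C in this document: percent viability relative to DMSO vehicle control wells = 100%.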

COc1ccc([C@@H](O)c2cc(-c3ncnc4cc(N5CCOCC5)ccc34)c(F)cc2Cl)nn1
inactive: viability, T/C (compound 0.0316 µM) 119% and 95% and 106% | viability, T/C (compound 0.1 µM) 103% and 97.4% and 85.3% | viability, T/C (compound 0.316 µM) 121% and 93.8% and 102% | viability, T/C (compound 1 µM) 89.3% and 96.7% and 82.5% | viability, T/C (compound 3.16 µM) 90.7% and 87.1% and 84.1% | viability, T/C (compound 10 µM) 43.1% and 49.8% and 47%
8.53 µM and 9.96 µM and 9.31 µM: IC50 (curve of compound)

COc1ccc([C@@H](O)c2cc(-c3ncnc4cc(N5CCOCC5)ccc34)c(F)cc2Cl)nn1 + CN(C)c1ccc(Nc2c3ccc(NC(=O)CCN4CCCC4)cc3nc3cc(NC(=O)CCN4CCCC4)ccc23)cc1
9.57 µM: IC50 [3]
> 10 µM: IC50 [1] | IC50 [2] | IC50 [4] | IC50 [5] | IC50 [6]
inactive: viability, T/C [7] 105% | viability, T/C [8] 116% | viability, T/C [9] 104% | viability, T/C [10] 96.6% | viability, T/C [11] 85.9% | viability, T/C [12] 72.5% | viability, T/C [13] 105% | viability, T/C [14] 124% | viability, T/C [15] 98.3% | viability, T/C [16] 108% | viability, T/C [17] 106% | viability, T/C [18] 61.6% | viability, T/C [19] 96.8% | viability, T/C [20] 94.5% | viability, T/C [21] 90% | viability, T/C [22] 106% | viability, T/C [23] 96.4% | viability, T/C [24] 48.1% | viability, T/C [25] 124% | viability, T/C [26] 111% | viability, T/C [27] 106% | viability, T/C [28] 106% | viability, T/C [29] 92.6% | viability, T/C [30] 59.1% | viability, T/C [31] 96.5% | viability, T/C [32] 126% | viability, T/C [33] 113% | viability, T/C [34] 93.1% | viability, T/C [35] 117% | viability, T/C [36] 68.5% | viability, T/C [37] 123% | viability, T/C [38] 112% | viability, T/C [39] 97.5% | viability, T/C [40] 106% | viability, T/C [41] 88.9% | viability, T/C [42] 50.8%

CC1COCCN1c1cc(C2(S(C)(=N)=O)CC2)nc(-c2ccnc3[nH]ccc23)n1 (stereo unspecified) + Cc1[nH]c2ccc(F)cc2c1-c1nc2c3cccnc3c3ncccc3c2[nH]1
4.53 µM: IC50 [4]
3.17 µM: IC50 [5]
2.91 µM: IC50 [1]
inactive: viability, T/C [7] 105% | viability, T/C [8] 86.6% | viability, T/C [9] 110% | viability, T/C [10] 67.8% | viability, T/C [11] 53.6% | viability, T/C [12] 31.8% | viability, T/C [13] 85% | viability, T/C [14] 95.9% | viability, T/C [15] 100% | viability, T/C [16] 87.4% | viability, T/C [17] 64% | viability, T/C [18] 35.8% | viability, T/C [19] 78.7% | viability, T/C [20] 96.4% | viability, T/C [21] 114% | viability, T/C [22] 87.9% | viability, T/C [23] 64.2% | viability, T/C [24] 24% | viability, T/C [25] 91% | viability, T/C [26] 90.3% | viability, T/C [27] 96.1% | viability, T/C [28] 111% | viability, T/C [29] 59.4% | viability, T/C [30] 29.3% | viability, T/C [31] 108% | viability, T/C [32] 99.2% | viability, T/C [33] 97.7% | viability, T/C [34] 97.1% | viability, T/C [35] 50% | viability, T/C [36] 18% | viability, T/C [37] 127% | viability, T/C [38] 83% | viability, T/C [39] 97.5% | viability, T/C [40] 92% | viability, T/C [41] 38.3% | viability, T/C [42] 14.1%
4.71 µM: IC50 [3]
2.46 µM: IC50 [6]
5.58 µM: IC50 [2]
